“And” between values parts separate entries of the source, which are not always exact repeats. Equal entries are not always repeated.
Tested on: 556581-035-R-J1-PDC complex spheroid growth
Assay: Anticancer human tumor 556581-035-R-J1-PDC patient-derived ovarian carcinoma cell line growth inhibition [Asc]
Conditions: for viability, T/C: stronger effect = lower value
Method in brief: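 Stromal components (HUVEC and hMSC) are co-assembled with the cancer cells into multicellular spheroids. Drugs are then added singly or paired, at concentrations falling by half-log increments from a clinically achievable maximum, capped at 10 microM without known Cmax.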

[1] = curve of first compound, second compound 0.03 µM
[2] = curve of first compound, second compound 0.0949 µM
[3] = curve of first compound, second compound 0.3 µM
[4] = curve of first compound, second compound 0.949 µM
[5] = curve of first compound, second compound 3 µM
[6] = second compound 0.03 µM, first compound 0.0316 µM
[7] = second compound 0.03 µM, first compound 0.1 µM
[8] = second compound 0.0949 µM, first compound 0.0316 µM
[9] = second compound 0.0949 µM, first compound 0.1 µM
[10] = second compound 0.3 µM, first compound 0.0316 µM
[11] = second compound 0.3 µM, first compound 0.1 µM
[12] = second compound 0.949 µM, first compound 0.0316 µM
[13] = second compound 0.949 µM, first compound 0.1 µM
[14] = second compound 3 µM, first compound 0.0316 µM
[15] = second compound 3 µM, first compound 0.1 µM
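Further: spheroids exposed to agents for 7 days before viability read.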

`O=C(c1ccc(F)c(F)c1Nc1ccc(I)cc1F)N1CC(O)([C@@H]2CCCCN2)C1` + Cc1c(S(C)(=O)=O)c(-c2cc(F)cc(N3CCN(c4ccc(NS(=O)(=O)c5ccc(NC(CCN6CCC(C(=O)OCCCP(=O)(O)O)CC6)CSc6ccccc6)c(S(=O)(=O)C(F)(F)F)c5)cc4)CC3)c2)c(-c2ccc(Cl)cc2)n1C(C)C showed an IC50 (curve of first compound, second compound 0.1 µM) of 92.9 nM, an IC50 (curve of first compound, second compound 0.316 µM) of 55.4 nM and an IC50 (curve of first compound, second compound 1 µM) of 44 nM. It also gave an IC50 (curve of first compound, second compound 3.16 µM) of 56.6 nM, an IC50 (curve of first compound, second compound 10 µM) of 4.93 nM and a viability, T/C (second compound 0.1 µM, first compound 0.00316 µM) of 73%. For the same compound, the viability, T/C (second compound 0.1 µM, first compound 0.01 µM) was 66.8%, the viability, T/C (second compound 0.1 µM, first compound 0.0316 µM) was 72.6% and the viability, T/C (second compound 0.1 µM, first compound 0.1 µM) was 44.9%. The viability, T/C (second compound 0.1 µM, first compound 0.316 µM) was 23.8%, the viability, T/C (second compound 0.1 µM, first compound 1 µM) was 4.45% and the viability, T/C (second compound 0.316 µM, first compound 0.00316 µM) was 59.6%. It also gave a viability, T/C (second compound 0.316 µM, first compound 0.01 µM) of 58.8%, a viability, T/C (second compound 0.316 µM, first compound 0.0316 µM) of 61.6% and a viability, T/C (second compound 0.316 µM, first compound 0.1 µM) of 39.4%. The viability, T/C (second compound 0.316 µM, first compound 0.316 µM) was 21.6%, the viability, T/C (second compound 0.316 µM, first compound 1 µM) was 25.9% and the viability, T/C (second compound 1 µM, first compound 0.00316 µM) was 70%. For the same compound, the viability, T/C (second compound 1 µM, first compound 0.01 µM) was 73.7%, the viability, T/C (second compound 1 µM, first compound 0.0316 µM) was 57.1% and the viability, T/C (second compound 1 µM, first compound 0.1 µM) was 29.5%. The viability, T/C (second compound 1 µM, first compound 0.316 µM) was 8.66%, the viability, T/C (second compound 1 µM, first compound 1 µM) was 1.82% and the viability, T/C (second compound 3.16 µM, first compound 0.00316 µM) was 67.7%. It also gave a viability, T/C (second compound 3.16 µM, first compound 0.01 µM) of 54.5%, a viability, T/C (second compound 3.16 µM, first compound 0.0316 µM) of 57.4% and a viability, T/C (second compound 3.16 µM, first compound 0.1 µM) of 45.5%. The viability, T/C (second compound 3.16 µM, first compound 0.316 µM) was 22.3%, the viability, T/C (second compound 3.16 µM, first compound 1 µM) was 4.54% and the viability, T/C (second compound 10 µM, first compound 0.00316 µM) was 49.6%. It also gave a viability, T/C (second compound 10 µM, first compound 0.01 µM) of 51.9%, a viability, T/C (second compound 10 µM, first compound 0.0316 µM) of 40.5% and a viability, T/C (second compound 10 µM, first compound 0.1 µM) of 15.2%. For the same compound, the viability, T/C (second compound 10 µM, first compound 0.316 µM) was 38.4% and the viability, T/C (second compound 10 µM, first compound 1 µM) was 16%.

In the case of `Cn1ncnc1[C@H]1c2n[nH]c(=O)c3cc(F)cc(c23)N[C@@H]1c1ccc(F)cc1` + CCN1C(C(=O)NC23CCC(C(=O)O)(CC2)CC3)C(c2cccc(Cl)c2F)C2(C(=O)Nc3cc(Cl)ccc32)C12CCCCC2, the IC50 [1] is reported as greater than 100 nM, the IC50 [2] is reported as greater than 100 nM and the IC50 [3] is reported as greater than 100 nM. It also gave an IC50 [4] greater than 100 nM, an IC50 [5] greater than 100 nM and a viability, T/C (second compound 0.03 µM, first compound 0.000316 µM) of 110%. It also gave a viability, T/C (second compound 0.03 µM, first compound 0.001 µM) of 102%, a viability, T/C (second compound 0.03 µM, first compound 0.00316 µM) of 94.4% and a viability, T/C (second compound 0.03 µM, first compound 0.01 µM) of 87.7%. For the same compound, the viability, T/C [6] was 94.3%, the viability, T/C [7] was 95.2% and the viability, T/C (second compound 0.0949 µM, first compound 0.000316 µM) was 105%. The viability, T/C (second compound 0.0949 µM, first compound 0.001 µM) was 100%, the viability, T/C (second compound 0.0949 µM, first compound 0.00316 µM) was 116% and the viability, T/C (second compound 0.0949 µM, first compound 0.01 µM) was 96.1%. For the same compound, the viability, T/C [8] was 94.9%, the viability, T/C [9] was 92.3% and the viability, T/C (second compound 0.3 µM, first compound 0.000316 µM) was 102%. For the same compound, the viability, T/C (second compound 0.3 µM, first compound 0.001 µM) was 130%, the viability, T/C (second compound 0.3 µM, first compound 0.00316 µM) was 97.2% and the viability, T/C (second compound 0.3 µM, first compound 0.01 µM) was 107%. It also gave a viability, T/C [10] of 87.1%, a viability, T/C [11] of 83.4% and a viability, T/C (second compound 0.949 µM, first compound 0.000316 µM) of 109%. It also gave a viability, T/C (second compound 0.949 µM, first compound 0.001 µM) of 93.8%, a viability, T/C (second compound 0.949 µM, first compound 0.00316 µM) of 102% and a viability, T/C (second compound 0.949 µM, first compound 0.01 µM) of 96.6%. The viability, T/C [12] was 90.6%, the viability, T/C [13] was 92.7% and the viability, T/C (second compound 3 µM, first compound 0.000316 µM) was 97%. It also gave a viability, T/C (second compound 3 µM, first compound 0.001 µM) of 94.8%, a viability, T/C (second compound 3 µM, first compound 0.00316 µM) of 78.7% and a viability, T/C (second compound 3 µM, first compound 0.01 µM) of 87%. The viability, T/C [14] was 84% and the viability, T/C [15] was 86.8%.

With `C=C(F)C(=O)N1CCN(c2nc(OCC3CCCN3C)nc3c2CCN(c2cccc4cccc(Cl)c24)C3)CC1CC#N` (configuration not stated) the viability, T/C (compound 0.0316 µM) was 77.9% and 98.7% and 100%, the viability, T/C (compound 0.1 µM) was 113% and 115% and 91.5% and the viability, T/C (compound 0.316 µM) was 102% and 110% and 95%. For the same compound, the viability, T/C (compound 1 µM) was 90.5% and 87% and 93.3%, the viability, T/C (compound 3.16 µM) was 48.4% and 64.9% and 55.1% and the viability, T/C (compound 10 µM) was 15% and 3.22% and 1%. For the same compound, the IC50 (curve of compound) was 3020 nM and 4070 nM and 3520 nM.

`O=C(c1cc(Cc2n[nH]c(=O)c3ccccc23)ccc1F)N1CCN(C(=O)C2CC2)CC1` + CCN1C(C(=O)NC23CCC(C(=O)O)(CC2)CC3)C(c2cccc(Cl)c2F)C2(C(=O)Nc3cc(Cl)ccc32)C12CCCCC2 showed an IC50 [1] greater than 10000 nM, an IC50 [2] greater than 10000 nM and an IC50 [3] greater than 10000 nM. The IC50 [4] was greater than 10000 nM, the IC50 [5] was greater than 10000 nM and the viability, T/C [6] was 105%. The viability, T/C [7] was 98%, the viability, T/C (second compound 0.03 µM, first compound 0.316 µM) was 85.5% and the viability, T/C (second compound 0.03 µM, first compound 1 µM) was 89.9%. It also gave a viability, T/C (second compound 0.03 µM, first compound 3.16 µM) of 86.7%, a viability, T/C (second compound 0.03 µM, first compound 10 µM) of 70.6% and a viability, T/C [8] of 106%. For the same compound, the viability, T/C [9] was 96.2%, the viability, T/C (second compound 0.0949 µM, first compound 0.316 µM) was 94% and the viability, T/C (second compound 0.0949 µM, first compound 1 µM) was 93.7%. The viability, T/C (second compound 0.0949 µM, first compound 3.16 µM) was 87.9%, the viability, T/C (second compound 0.0949 µM, first compound 10 µM) was 77% and the viability, T/C [10] was 104%. The viability, T/C [11] was 97.2%, the viability, T/C (second compound 0.3 µM, first compound 0.316 µM) was 99.2% and the viability, T/C (second compound 0.3 µM, first compound 1 µM) was 97.1%. It also gave a viability, T/C (second compound 0.3 µM, first compound 3.16 µM) of 73.3%, a viability, T/C (second compound 0.3 µM, first compound 10 µM) of 79.2% and a viability, T/C [12] of 89.9%. It also gave a viability, T/C [13] of 92.6%, a viability, T/C (second compound 0.949 µM, first compound 0.316 µM) of 103% and a viability, T/C (second compound 0.949 µM, first compound 1 µM) of 86.1%. It also gave a viability, T/C (second compound 0.949 µM, first compound 3.16 µM) of 79.3%, a viability, T/C (second compound 0.949 µM, first compound 10 µM) of 83.6% and a viability, T/C [14] of 97.5%. It also gave a viability, T/C [15] of 81.8%, a viability, T/C (second compound 3 µM, first compound 0.316 µM) of 87.5% and a viability, T/C (second compound 3 µM, first compound 1 µM) of 86.8%. The viability, T/C (second compound 3 µM, first compound 3.16 µM) was 84.8% and the viability, T/C (second compound 3 µM, first compound 10 µM) was 65.9%.
